Test results: US20260027125A1, “AN ANTIBACTERIAL PARENTERAL FORMULATION AND METHODS THEREOF” (BUGWORKS RESEARCH INDIA PVT. LTD., priority 2022, published 2026)
Structures can show the parent of a compound that is named as a salt.

Experiments:
[1] = system: Escherichia coli; experiment: microbe, parasite or virus in culture; type: cell-based
[2] = system: Acinetobacter baumannii; experiment: microbe, parasite or virus in culture; type: cell-based
[3] = system: Serratia marcescens; experiment: microbe, parasite or virus in culture; type: cell-based
[4] = system: Stenotrophomonas maltophilia; experiment: microbe, parasite or virus in culture; type: cell-based
[5] = system: Salmonella species; experiment: microbe, parasite or virus in culture; type: cell-based
[6] = system: Klebsiella oxytoca, aerogenes; experiment: microbe, parasite or virus in culture; type: cell-based
[7] = system: Providencia spp.; experiment: microbe, parasite or virus in culture; type: cell-based
[8] = system: Achromobacter spp.; experiment: microbe, parasite or virus in culture; type: cell-based
[9] = system: Legionella pneumophila; experiment: microbe, parasite or virus in culture; type: cell-based
[10] = system: Campylobacter sp.; experiment: microbe, parasite or virus in culture; type: cell-based
[11] = system: Shigella sp.; experiment: microbe, parasite or virus in culture; type: cell-based
[12] = system: Enterobacter aerogenes; experiment: microbe, parasite or virus in culture; type: cell-based
[13] = system: Hemophilus influenzae; experiment: microbe, parasite or virus in culture; type: cell-based
[14] = system: Moraxella catarrhalis; experiment: microbe, parasite or virus in culture; type: cell-based
[15] = system: Fusobacterium spp. (anaerobe); experiment: microbe, parasite or virus in culture; type: cell-based
[16] = system: Prevotella sp. (anaerobe); experiment: microbe, parasite or virus in culture; type: cell-based
[17] = system: Staphylococcus aureus; experiment: microbe, parasite or virus in culture; type: cell-based
[18] = system: Coagulase-negatives Staphylococcus; experiment: microbe, parasite or virus in culture; type: cell-based
[19] = system: Enterococcus faecalis; experiment: microbe, parasite or virus in culture; type: cell-based
[20] = system: Enterococcus faecium; experiment: microbe, parasite or virus in culture; type: cell-based
[21] = system: Clostridium difficile (anaerobe); experiment: microbe, parasite or virus in culture; type: cell-based
[22] = system: Francisella tularensis; experiment: microbe, parasite or virus in culture; type: cell-based
[23] = pH solution stability study; type: physicochemical
Procedure: The weighed quantity of compound of Formula (I) formate salt was added to each buffers system and dissolved. Volume make up was performed with WFI. The 5 mL of sample was filled in 5 mL USP Type I Vials. Vials were stopped and sealed. These vials were kept at 25° C. for stability study. The blank buffers/placebo samples were also placed along with active samples.

[24] = system: A. baumannii ATCC 17978; experiment: Neutropenic murine model of thigh infection; type: in vivo, Acinetobacter baumannii; conditions: neutropenic mice
[25] = system: Neisseria gonorrhoea
[26] = system: Neisseria gonorrhoea; experiment: microbe, parasite or virus in culture
[27] = system: Helicobacter pylori; experiment: microbe, parasite or virus in culture
[28] = Legionella pneumophila clinical isolates, N 35

Compound: Cn1c(=O)ccc2ccc(F)c(CCNC[C@H]3CN(c4cnc5c(n4)NC(=O)CO5)C(=O)O3)c21 [compound of Formula (I) formate salt, (S)-6-(5-(((2-(7-fluoro-1-methyl-2-oxo-1,2-dihydroquinolin-8-yl)ethyl)amino)methyl)-2-oxooxazolidin-3-yl)-2H-pyrazino[2,3-b][1,4]oxazin-3(4H)-one formate]
- MIC Range, high end [1]: 4 µg/mL
- MIC Range, low end [1]: ≤0.015 µg/mL
- MIC50 ([1]; Escherichia coli): 0.12 µg/mL
- MIC90 ([1]; Escherichia coli): 0.5 µg/mL
- MIC Range, high end [2]: 4 µg/mL
- MIC Range, low end [2]: 0.03 µg/mL
- MIC50 ([2]; Acinetobacter baumannii): 0.25 µg/mL
- MIC90 ([2]; Acinetobacter baumannii): 0.5 µg/mL
- MIC Range, high end [3]: 32 µg/mL
- MIC Range, low end [3]: 0.03 µg/mL
- MIC50 ([3]; Serratia marcescens): 0.25 µg/mL
- MIC90 ([3]; Serratia marcescens): 1 µg/mL
- MIC Range, high end [4]: 2 µg/mL
- MIC Range, low end [4]: 0.03 µg/mL
- MIC50 ([4]; Stenotrophomonas maltophilia): 0.06 µg/mL
- MIC90 ([4]; Stenotrophomonas maltophilia): 0.25 µg/mL
- MIC Range, high end [5]: 2 µg/mL
- MIC Range, low end [5]: 0.03 µg/mL
- MIC50 ([5]; Salmonella): 0.12 µg/mL
- MIC90 ([5]; Salmonella): 0.25 µg/mL
- MIC Range, high end [6]: 4 µg/mL
- MIC Range, low end [6]: 0.06 µg/mL
- MIC50 ([6]; Klebsiella oxytoca): 0.25 µg/mL
- MIC90 ([6]; Klebsiella oxytoca): 0.5 µg/mL
- MIC Range, high end [7]: 32 µg/mL
- MIC Range, low end [7]: 0.06 µg/mL
- MIC50 ([7]; Providencia): 0.5 µg/mL
- MIC90 ([7]; Providencia): 2 µg/mL
- MIC Range, high end [8]: 0.5 µg/mL
- MIC Range, low end [8]: ≤0.015 µg/mL
- MIC50 ([8]; Achromobacter): 0.06 µg/mL
- MIC90 ([8]; Achromobacter): 0.12 µg/mL
- MIC50 ([9]; Legionella pneumophila): ≤ 0.015 µg/mL
- MIC90 ([9]; Legionella pneumophila): ≤ 0.015 µg/mL
- MIC Range, high end [9, 28]: ≤0.015 µg/mL
- MIC Range, low end [9, 28]: ≤0.015 µg/mL
- MIC Range, high end [10]: 0.03 µg/mL
- MIC Range, low end [10]: ≤0.015 µg/mL
- MIC50 ([10]; Campylobacter): ≤ 0.015 µg/mL
- MIC90 ([10]; Campylobacter): ≤ 0.015 µg/mL
- MIC Range, high end [11]: 0.25 µg/mL
- MIC Range, low end [11]: ≤0.015 µg/mL
- MIC50 ([11]; Shigella): 0.03 µg/mL
- MIC90 ([11]; Shigella): 0.06 µg/mL
- MIC Range, high end [12]: 0.25 µg/mL
- MIC Range, low end [12]: 0.25 µg/mL
- MIC50 ([12]; Klebsiella aerogenes): 0.25 µg/mL
- MIC90 ([12]; Klebsiella aerogenes): 0.25 µg/mL
- MIC Range, high end [13]: ≤0.015 µg/mL
- MIC Range, low end [13]: ≤0.015 µg/mL
- MIC50 ([13]; Haemophilus influenzae): ≤ 0.015 µg/mL
- MIC90 ([13]; Haemophilus influenzae): ≤ 0.015 µg/mL
- MIC Range, high end [14]: ≤0.015 µg/mL
- MIC Range, low end [14]: ≤0.015 µg/mL
- MIC50 ([14]; Moraxella catarrhalis): ≤ 0.015 µg/mL
- MIC90 ([14]; Moraxella catarrhalis): ≤ 0.015 µg/mL
- MIC Range, high end [15]: 0.5 µg/mL
- MIC Range, low end [15]: ≤0.015 µg/mL
- MIC50 ([15]; Fusobacterium): ≤ 0.015 µg/mL
- MIC90 ([15]; Fusobacterium): ≤ 0.015 µg/mL
- MIC Range, high end [16]: 1 µg/mL
- MIC Range, low end [16]: ≤0.015 µg/mL
- MIC50 ([16]; Prevotella): ≤ 0.015 µg/mL
- MIC90 ([16]; Prevotella): ≤ 0.015 µg/mL
- MIC Range, high end [17]: 0.5 µg/mL
- MIC Range, low end [17]: <0.015 µg/mL
- MIC50 ([17]; Staphylococcus aureus): 0.03 µg/mL
- MIC90 ([17]; Staphylococcus aureus): 0.03 µg/mL
- MIC Range, high end [18]: 0.03 µg/mL
- MIC Range, low end [18]: <0.015 µg/mL
- MIC50 ([18]; Staphylococcus): < 0.015 µg/mL
- MIC90 ([18]; Staphylococcus): < 0.015 µg/mL
- MIC Range, high end [19]: 0.25 µg/mL
- MIC Range, low end [19]: <0.015 µg/mL
- MIC50 ([19]; Enterococcus faecalis): 0.03 µg/mL
- MIC90 ([19]; Enterococcus faecalis): 0.06 µg/mL
- MIC Range, high end [20]: 0.5 µg/mL
- MIC Range, low end [20]: <0.015 µg/mL
- MIC50 ([20]; Enterococcus faecium): 0.03 µg/mL
- MIC90 ([20]; Enterococcus faecium): 0.12 µg/mL
- MIC Range, high end [21]: 0.06 µg/mL
- MIC Range, low end [21]: <0.015 µg/mL
- MIC50 ([21]; Clostridioides difficile): < 0.015 µg/mL
- MIC90 ([21]; Clostridioides difficile): 0.03 µg/mL
- MIC50 [22]: ≤ 0.015 µg/mL
- MIC90 [22]: ≤ 0.015 µg/mL
- MIC Range, high end ([22]; N 36 strains): ≤0.015 µg/mL
- MIC Range, low end ([22]; N 36 strains): ≤0.015 µg/mL
- stability ([23]; acid pH (<5)): very stable
- stability ([23]; liquid state (Solution/Suspension)): highly unstable
- stability ([23]; neutral to alkaline pH range (pH 5.0 to 10.0)): unstable
- solution stability upto ([23]; pH 3.0-pH 5.0): ≤ 24 h
- effect on bacterial burden in thigh ([24]; SC 10 mg/kg q8h, 26 hours): effective at reducing
- effect on bacterial burden in thigh ([24]; SC 30 mg/kg q8h, 26 hours): effective at reducing
- effect on bacterial burden in thigh ([24]; SC 60 mg/kg q8h, 26 hours): either a bacteriostatic or killing effect
- effect on bacterial burden in thigh ([24]; SC 90 mg/kg q8h, 26 hours): logarithmic killing
- effect on bacterial burden in thigh ([24]; SC 120 mg/kg q8h, 26 hours): logarithmic killing
- efficacy compared with polymyxin B (SC 25 mg/kg q8h) ([24]; doses ≥90 mg/kg q8h SC): more effective
- efficacy compared with subcutaneous meropenem (200 mg/kg q8h) ([24]; doses ≥90 mg/kg q8h SC): more effective
- effect on bacterial burden in thigh ([24]; ≥60 mg/kg q8h SC, across three replicate studies): logarithmic killing
- MIC Range, high end [25]: ≤0.015 µg/mL
- MIC Range, low end [25]: ≤0.015 µg/mL
- MIC50 [26]: ≤ 0.015 µg/mL
- MIC90 [26]: ≤ 0.015 µg/mL
- MIC50 [27]: ≤ 0.015 µg/mL
- MIC90 [27]: ≤ 0.015 µg/mL
